Data set [1] has as its system normal colonic epithelial cell line FHC. Nature of the data set: MTT assay, normal cell proliferation. The class given is cell-based. The conditions noted are these: 50-250 μg/mL, 48 h. As to the method: (§1) Colon cancer cell line HCT116, cervical cancer cell line Hela, breast cancer cell MCF-7, liver cancer cell HepG2 and normal colonic epithelial cell line FHC in the logarithmic phase were harvested and respectively made into a suspension. After counted, the suspensions were adjusted to 6000 cells/100 μL, and then 100 μL, of respective suspensions were seeded into a 96-well plate, and cultured at 37° C. and 5% CO2 overnight. After that, the culture medium was discarded, and the wells were respectively added with culture mediums containing different concentrations of spinosin-Na, such that final concentrations of the spinosin-Na were respectively 50, 100, 150, 200 and 250 μg/mL. 5 parallel wells were set for each concentration treatment. The cells were continuously cultured in the incubator for 48 h. After that, the culture medium was discarded, and the cells were washed twice with PBS, added with 20 μL of 5.0 mg/mL MTT and continuously cultured for 4 h. The culture medium was discarded, and respective wells were added with 150 μL of DMSO to dissolve formazan crystals produced by living cells. The plate was shaken on a shaker for 10 min, and then transferred to a microplate reader for the measurement of absorbance at 570 nm.
(§2) The antitumor activity of different concentrations of spinosin (100, 200, 300, 400, 500 μg/mL) was measured by the same method described above.

In data set [2] the test system is colon cancer cells HCT116. Nature of the data set: Annexin V/PI flow cytometry apoptosis. The conditions noted are these: HCT116, 48 h. The class given is cell-based. As to the method: (§3) HCT116 and Hela cells in the logarithmic phase were harvested, digested with 0.25% trypsin, and seeded into a 6-well cell culture plate at a density of 1×10^5 cells per petri dish. The cells were cultured at 37° C. and 5% CO2 in an incubator overnight. After the cell adhesion was observed, the culture medium was replaced, and the dishes were respectively added with different concentrations of spinosin-Na. At the same time, a blank control was set, and each concentration treatment was performed in triplicate. The cells were continuously cultured in the incubator under the same conditions for 48 h. After that, the adherent cells were digested with 0.25% trypsin followed by centrifugation at 1,000 rpm for 5 min. The supernatant was discarded, and the cells were washed twice with PBS. The cells were suspended with 200 μL of a mixture of Annexin V and Binding buffer and reacted at 4° C. in the dark for 30 min. 300 μL of a mixed solution of PI and Binding buffer was added to each sample 5 min before the test. The double-stained cells were detected by flow cytometry to identify normal cells, early apoptotic cells, late apoptotic cells and necrotic cells, determining the apoptosis rate. […]
Background: In flow cytometry, cells or beads pass a laser one at a time.

In data set [3] the test system is cervical cancer cells Hela. The data set can be described thus: Annexin V/PI flow cytometry apoptosis. The class given is cell-based. Particulars: 48 h. As to the method: as §3
Data set [4] can be described thus: Water solubility. The class given is physicochemical.
Data set [5] has as its system breast cancer cell MCF-7. Nature of the data set: MTT assay, tumor cell proliferation. The conditions noted are these: 48 h. It counts as cell-based. As to the method:
as §1, §2
A general note: Tetrazolium assays rely on reduction of a dye to a coloured formazan, in cell work by metabolically active cells.

The test system of data set [6] is cervical cancer cell line Hela. The data set can be described thus: MTT assay, tumor cell proliferation. The class given is cell-based. Particulars: 48 h; for IC50: MTT. As to the method: as §1, §2
Data set [7] deals with Colon cancer cell line HCT116. Nature of the data set: MTT assay, tumor cell proliferation. Particulars: 48 h; for IC50: HCT-116, MTT. It counts as cell-based. As to the method: as §1, §2
In data set [8] the test system is liver cancer cell HepG2. The data set can be described thus: MTT assay, tumor cell proliferation. Particulars: 48 h. It counts as cell-based. As to the method:
as §1, §2

The conditions of data set [9]: spinosin prepared by the existing methods; cited from earlier work.

The values below come from patent US20210008142A1, “PREPARATION AND USES OF SPINOSIN-Na FROM ZIZIPHI SPINOSAE SEMEN” (Shanxi University, priority 2019, published 2021).

Usually IC50 stands for the concentration needed to halve the response being measured.

Converted amounts (≈) assume the structure as drawn. Where two headings read alike, the source gives them in different places.

As for spinosin-Na, the “effect on proliferation of normal cells” value in data set [1] is “no significant effect”. Further, the “apoptosis of tumor cells” value in data set [2] and in data set [3] was “significantly induce the apoptosis” throughout. Moreover, in data set [4], the water solubility entry was “good water solubility”. Moreover, the IC50 in data set [5] (MCF7, MTT) worked out at 291.79 ± 10.49 µg/mL; in data set [6] it was 178.41 ± 6.83 µg/mL; in [7], 147.20 ± 4.65 µg/mL; in data set [8] (HepG2, MTT), 444.08 ± 15.21 µg/mL. Further, the “proliferation of tumor cells” value is “significantly inhibit the proliferation” in data set [5] (MCF-7, 50-250 μg/mL); “significantly inhibit the proliferation” in data set [6] (50-250 μg/mL); “significantly inhibit the proliferation” in [7] (HCT116, 50-250 μg/mL); “significantly inhibit the proliferation” in [8] (HepG2, 50-250 μg/mL).

As for `COc1cc2oc(-c3ccc(O)cc3)cc(=O)c2c(O)c1[C@@H]1O[C@H](CO)[C@@H](O)[C@H](O)[C@H]1O[C@@H]1O[C@H](CO)[C@@H](O)[C@H](O)[C@H]1O` [Spinosin, spinosin], in data set [9], the water solubility result is given as “poor water-solubility”. The half-inhibitory concentration (IC50) in [6] was 687.60 ± 2132 µg/mL (≈ 1130 µM); in data set [7], 732.71 ± 18.97 µg/mL (≈ 1200 µM).
